Laboratory results from the supplement of paper PMC10307832.

Legend:
Experiment in all cases: relative viability (nuclei count vs DMSO), 5 days (fraction); higher = more cells survive
BAM7 + Pictilisib = compound: CCOC1=CC=CC=C1N=NC2=C(NN(C2=O)C3=NC(=CS3)C4=CC=CC=C4)C [BAM7] + CS(=O)(=O)N1CCN(Cc2cc3nc(-c4cccc5[nH]ncc45)nc(N4CCOCC4)c3s2)CC1 [Pictilisib] (partner 1 µM)
Method in brief: (§1)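 Nuclei were stained with Hoechst during a one-step fixation (final 0.05% Triton X-100, 1% formaldehyde, 1 ug/ml Hoechst) carried out 5 days after dosing, then counted on 4× images. The cells, lung cancer lines in 1536-well plates, had been dosed by pin tool the day after seeding with one drug alone or a fixed anchor-drug dose plus five library-drug doses (not always all listed) in √10 steps. Relative viability is the nuclei count in treated wells divided by that in vehicle wells, and each value is the median of duplicate plates.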

BAM7 + Lapatinib = compound: CCOC1=CC=CC=C1N=NC2=C(NN(C2=O)C3=NC(=CS3)C4=CC=CC=C4)C [BAM7] + CS(=O)(=O)CCNCc1ccc(-c2ccc3ncnc(Nc4ccc(OCc5cccc(F)c5)c(Cl)c4)c3c2)o1 [Lapatinib] (partner 2 µM)
Method in brief: as §1

[1] = compound: CCn1c(-c2nonc2N)nc2c(C#CC(C)(C)O)ncc(OC[C@H]3CCCNC3)c21 + CC(=O)Nc1cccc(-n2c(=O)n(C3CC3)c(=O)c3c(Nc4ccc(I)cc4F)n(C)c(=O)c(C)c32)c1 [Trametinib] (partner 0.02 µM)
Method in brief: as §1

BAM7 + Trametinib = compound: CCOC1=CC=CC=C1N=NC2=C(NN(C2=O)C3=NC(=CS3)C4=CC=CC=C4)C [BAM7] + CC(=O)Nc1cccc(-n2c(=O)n(C3CC3)c(=O)c3c(Nc4ccc(I)cc4F)n(C)c(=O)c(C)c32)c1 [Trametinib] (partner 0.02 µM)
Method in brief: as §1

Question: Which results are given for UMC-11?
Answer: relative viability (BAM7 + Pictilisib; first compound 0.5 µM): 0.856; relative viability (BAM7 + Pictilisib; first compound 5 µM): 0.897; relative viability (BAM7 + Pictilisib; first compound 15.81 µM): 0.85; relative viability (BAM7 + Pictilisib; first compound 50 µM): 0.892; relative viability (BAM7 + Lapatinib; first compound 0.5 µM): 1.02; relative viability (BAM7 + Lapatinib; first compound 5 µM): 0.981; relative viability (BAM7 + Lapatinib; first compound 15.81 µM): 1.12; relative viability (BAM7 + Lapatinib; first compound 50 µM): 1.15; relative viability ([1]; first compound 0.01 µM): 0.765; relative viability ([1]; first compound 0.03162 µM): 0.701; relative viability ([1]; first compound 0.1 µM): 0.754; relative viability ([1]; first compound 0.3162 µM): 0.754; relative viability ([1]; first compound 1 µM): 0.618; relative viability (BAM7 + Trametinib; first compound 0.5 µM): 0.694; relative viability (BAM7 + Trametinib; first compound 5 µM): 0.83; relative viability (BAM7 + Trametinib; first compound 15.81 µM): 0.728; relative viability (BAM7 + Trametinib; first compound 50 µM): 0.71
